One may read the IC50 as the point on the concentration scale where inhibition reaches its midpoint.

Experiment [1] concerns the target GDP-bound KRAS protein (aa 1-169), containing both G12C and C118A amino acid substitutions (Homo sapiens (Human), UniProt P01116, C118A/G12C). In words: Coupled nucleotide exchange assay (SOS-mediated nucleotide exchange, AlphaScreen). The class given is biochemical. The conditions noted are these: read-out: Coupled exchange IC50 (5 min; μM); 5 min compound pre-incubation.

For experiment [2], the system named is Phosphorylation of ERK1/2 in MIA PaCa-2 cells. In words: Phospho-ERK1/2 MSD assay in MIA PaCa-2 cells. The class given is cell-based. The conditions noted are these: read-out: p-ERK IC50 (2 h, MiaPaCa-2; μM), 2 h compound treatment, MIA PaCa-2 cells, EGF stimulated. Put shortly: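 Phospho-ERK1/2 measured by MSD electrochemiluminescence kit in RIPA lysates of MIA PaCa-2 cells. Cells were treated with compound titrations for 2 or 4 h at 37 °C, 5% CO2, followed by a 10 min pulse of 10 ng/mL EGF.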

Experiment [3] has as its system Phosphorylation of ERK1/2 in A549 cells. The experiment is described as follows: Phospho-ERK1/2 MSD assay in A549 cells. Conditions: read-out: p-ERK IC50 (2 h, A549; μM), 2 h compound treatment, A549 cells, EGF stimulated. Type of experiment: cell-based. The essentials: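 MSD electrochemiluminescent read-out of phospho-ERK1/2 in RIPA lysates. Cells in RPMI 1640 with 10% FBS received titrated compound for 2 or 4 h, then 10 ng/mL EGF for 10 min before ice-cold PBS wash and lysis.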

Where two headings read alike, the source gives them in different places.

GDP-bound KRAS protein (aa 1-169), containing both G12C and C118A amino acid substitutions, sequence (P01116 other isoform, or with tags, fused parts or gaps G12C/C118A): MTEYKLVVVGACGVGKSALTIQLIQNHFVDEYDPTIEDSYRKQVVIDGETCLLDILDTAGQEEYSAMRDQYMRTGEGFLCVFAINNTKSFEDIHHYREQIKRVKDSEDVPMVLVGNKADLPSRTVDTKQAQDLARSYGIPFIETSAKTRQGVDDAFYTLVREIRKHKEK

Turning to `C=CC(=O)N1C[C@H](C)N(c2nc(=O)n(-c3c(C)ccnc3C(C)C)c3nc(-c4cccc(F)c4F)c(Cl)cc23)C[C@H]1C` (atropisomer, axis not shown; (M)) [Example 92-66, (M)-6-Chloro-7-(2,3-difluorophenyl)-4-[(2S,5R)-2,5-dimethyl-4-prop-2-enoyl-piperazin-1-yl]-1-(2-isopropyl-4-methyl-3-pyridyl)pyrido [2,3-d]pyrimidin-2-one], the IC50 in experiment [1] was 0.034 µM; in experiment [2] (Homo sapiens, MIA PaCa-2, 2 h), 0.033 µM; in experiment [3] (Homo sapiens, A549, 2 h) it was more than 7.5 µM.

Turning to `C=CC(=O)N1C[C@H](C)N(c2nc(=O)n(-c3c(C)ccnc3C(C)C)c3nc(-c4ccccc4OC)c(Cl)cc23)C[C@H]1C` (atropisomer, axis not shown; (M)) [Example 92-67, (M)-6-Chloro-4-[(2S,5R)-2,5-dimethyl-4-prop-2-enoyl-piperazin-1-yl]-1-(2-isopropyl-4-methyl-3-pyridyl)-7-(2-methoxyphenyl) pyrido[2,3-d]pyrimidin-2-one], the IC50 is 0.13 µM in experiment [1]; 0.062 µM in experiment [2] (Homo sapiens, MIA PaCa-2, 2 h); more than 7.5 µM in experiment [3] (Homo sapiens, A549, 2 h).

Turning to `C=CC(=O)N1C[C@H](C)N(c2nc(=O)n(-c3c(C)ccnc3C(C)C)c3nc(-c4sccc4C)c(Cl)cc23)C[C@H]1C` (atropisomer, axis not shown; (M)) [Example 93-1, (M)-6-Chloro-4-[(2S,5R)-2,5-dimethyl-4-prop-2-enoyl-piperazin-1-yl]-1-(2-isopropyl-4-methyl-3-pyridyl)-7-(3-methyl-2-thienyl)pyrido[2,3-d]pyrimidin-2-one], the concentration for half-maximal inhibition (IC50) is 0.055 µM in experiment [1], 0.097 µM in experiment [2] and more than 7.5 µM in experiment [3].

As for `C=CC(=O)N1C[C@H](C)N(c2nc(=O)n(-c3c(C)ccnc3C(C)C)c3nc(-c4ccccc4C(C)C)c(F)cc23)C[C@H]1C` (atropisomer, axis not shown; (M)) [Example 94-1, (M)-4-[(2S,5R)-2,5-Dimethyl-4-prop-2-enoyl-piperazin-1-yl]-6-fluoro-1-(2-isopropyl-4-methyl-3-pyridyl)-7-(2-isopropylphenyl)pyrido[2,3-d]pyrimidin-2-one], the half-inhibitory concentration (IC50) was 0.077 µM in experiment [1], 0.107 µM in experiment [2] and more than 7.5 µM in experiment [3].

With `C=CC(=O)N1C[C@H](C)N(c2nc(=O)n(-c3c(C)ccnc3C(C)C)c3nc(-c4cc(C)ccc4F)c(F)cc23)C[C@H]1C` (atropisomer, axis not shown; (M)) [Example 94-4, (M)-4-[(2S,5R)-2,5-dimethyl-4-prop-2-enoyl-piperazin-1-yl]-6-fluoro-7-(2-fluoro-5-methyl-phenyl)-1-(2-isopropyl-4-methyl-3-pyridyl)pyrido [2,3-d]pyrimidin-2-one], the IC50 in experiment [1] was 0.222 µM; in experiment [2] (Homo sapiens, MIA PaCa-2, 2 h), 0.218 µM; in experiment [3] (Homo sapiens, A549, 2 h), more than 7.5 µM.

`C=CC(=O)N1C[C@H](C)N(c2nc(=O)n(-c3c(C)ccnc3C(C)C)c3nc(-c4cc(Cl)ccc4F)c(F)cc23)C[C@H]1C` (atropisomer, axis not shown; (M)) [Example 94-5, (M)-7-(5-chloro-2-fluoro-phenyl)-4-[(2S,5R)-2,5-dimethyl-4-prop-2-enoyl-piperazin-1-yl]-6-fluoro-1-(2-isopropyl-4-methyl-3-pyridyl)pyrido [2,3-d]pyrimidin-2-one]: the half-maximal inhibitory concentration (IC50) in experiment [1] was 0.708 µM; in experiment [2] (Homo sapiens, MIA PaCa-2, 2 h), 0.265 µM; in experiment [3] (Homo sapiens, A549, 2 h) it was more than 7.5 µM.

Turning to `C=CC(=O)N1C[C@H](C)N(c2nc(=O)n(-c3c(C)ccnc3C(C)C)c3nc(-c4ccccc4C)c(F)cc23)C[C@H]1C` (atropisomer, axis not shown; (M)) [Example 94-8, (M)-4-[(2S,5R)-2,5-Dimethyl-4-prop-2-enoyl-piperazin-1-yl]-6-fluoro-1-(2-isopropyl-4-methyl-3-pyridyl)-7-(o-tolyl)pyrido[2,3-d]pyrimidin-2-one], the IC50 in experiment [1] is 0.255 µM; in experiment [2] (Homo sapiens, MIA PaCa-2, 2 h) it was 0.131 µM; in experiment [3] (Homo sapiens, A549, 2 h), more than 7.5 µM.

Consider `C=CC(=O)N1C[C@H](C)N(c2nc(=O)n(-c3c(C)ccnc3C(C)C)c3nc(-c4c(C)cccc4F)c(F)cc23)C[C@H]1C` (atropisomer, axis not shown; (M)) [Example 94-10, (M)-4-[(2S,5R)-2,5-Dimethyl-4-prop-2-enoyl-piperazin-1-yl]-6-fluoro-7-(2-fluoro-6-methyl-phenyl)-1-(2-isopropyl-4-methyl-3-pyridyl)pyrido [2,3-d]pyrimidin-2-], for which the IC50 was 0.137 µM in experiment [1]; 0.079 µM in experiment [2] (Homo sapiens, MIA PaCa-2, 2 h); more than 7.5 µM in experiment [3] (Homo sapiens, A549, 2 h).

Take `C=CC(=O)N1C[C@H](C)N(c2nc(=O)n(-c3c(C)ccnc3C(C)C)c3nc(-c4c(F)cccc4Cl)c(F)cc23)C[C@H]1C` (atropisomer, axis not shown; (M)) [Example 94-12, (M)-7-(2-Chloro-6-fluoro-phenyl)-4-[(25,5R)-2,5-dimethyl-4-prop-2-enoyl-piperazin-1-yl]-6-fluoro-1-(2-isopropyl-4-methyl-3-pyridyl)pyrido [2,3-d]pyrimidin-2-one]: the concentration for half-maximal inhibition (IC50) in experiment [1] is 0.184 µM; in experiment [2] (Homo sapiens, MIA PaCa-2, 2 h), 0.128 µM; in experiment [3] (Homo sapiens, A549, 2 h), more than 7.5 µM.

Consider `C=CC(=O)N1C[C@H](C)N(c2nc(=O)n(-c3c(C)ccnc3C(C)C)c3nc(-c4c(F)cccc4C(N)=O)c(F)cc23)C[C@H]1C` (atropisomer, axis not shown; (M)) [Example 94-19, (M)-2-[4-[(2S,5R)-2,5-Dimethyl-4-prop-2-enoyl-piperazin-1-yl]-6-fluoro-1-(2-isopropyl-4-methyl-3-pyridyl)-2-oxo-pyrido[2,3-d]pyrimidin-7-yl]-3-fluoro-benzamide], for which the concentration for half-maximal inhibition (IC50) in experiment [1] was 0.067 µM; in experiment [2] (Homo sapiens, MIA PaCa-2, 2 h), 0.518 µM; in experiment [3] (Homo sapiens, A549, 2 h), more than 7.5 µM.

With `C=CC(=O)N1C[C@H](C)N(c2nc(=O)n(-c3c(C)ccnc3C(C)C)c3nc(C4CCCCC4)c(Cl)cc23)C[C@H]1C` (atropisomer, axis not shown; (M)) [Example 95-1, (M)-6-Chloro-7-cyclohexyl-4-[(2S,5R)-2,5-dimethyl-4-prop-2-enoyl-piperazin-1-yl]-1-(2-isopropyl-4-methyl-3-pyridyl)pyrido[2,3-d]pyrimidin-2-one], the half-inhibitory concentration (IC50) was 0.053 µM in experiment [1], 0.318 µM in experiment [2] and more than 7.5 µM in experiment [3].

As for `C=CC(=O)N1C[C@H](C)N(c2nc(=O)n(-c3c(C)ccnc3C(C)C)c3nc(C4CCC4)c(Cl)cc23)C[C@H]1C` (atropisomer, axis not shown; (M)) [Example 95-5, (M)-6-chloro-7-cyclobutyl-4-[(2S,5R)-2,5-dimethyl-4-prop-2-enoyl-piperazin-1-yl]-1-(2-isopropyl-4-methyl-3-pyridyl)pyrido [2,3-d]pyrimidin-2-one], the concentration for half-maximal inhibition (IC50) in experiment [1] was 0.304 µM; in experiment [2] (Homo sapiens, MIA PaCa-2, 2 h), 0.611 µM; in experiment [3] (Homo sapiens, A549, 2 h), more than 7.5 µM.

Turning to `C=CC(=O)N1C[C@H](C)N(c2nc(=O)n(-c3c(C)ccnc3C(C)C)c3nc(-c4cc(OC(F)(F)F)ccc4F)c(Cl)cc23)C[C@H]1C` (atropisomer, axis not shown; (M)) [Example 124-12, (M)-6-Chloro-4-[(2S,5R)-2,5-dimethyl-4-prop-2-enoyl-piperazin-1-yl]-7-[2-fluoro-5-(trifluoromethoxy)phenyl]-1-(2-isopropyl-4-methyl-3-pyridyl)pyrido[2,3-d]pyrimidin-2-one], the IC50 in experiment [1] was 0.313 µM; in experiment [2] (Homo sapiens, MIA PaCa-2, 2 h), 0.231 µM; in experiment [3] (Homo sapiens, A549, 2 h), more than 7.5 µM.

As to `C=CC(=O)N1C[C@H](C)N(c2nc(=O)n(-c3c(C)ccnc3C(C)C)c3nc(-c4cc(F)c(F)cc4O)c(Cl)cc23)C[C@H]1C` (atropisomer, axis not shown; (M)) [Example 124-13, (M)-6-Chloro-7-(4,5-difluoro-2-hydroxy-phenyl)-4-[(2S,5R)-2,5-dimethyl-4-prop-2-enoyl-piperazin-1-yl]-1-(2-isopropyl-4-methyl-3-pyridyl)pyrido[2,3-d]pyrimidin-2-one], the concentration for half-maximal inhibition (IC50) in experiment [1] is 0.068 µM; in experiment [2] (Homo sapiens, MIA PaCa-2, 2 h), 0.094 µM; in experiment [3] (Homo sapiens, A549, 2 h), more than 7.5 µM.

On to `C=CC(=O)N1C[C@H](C)N(c2nc(=O)n(-c3c(C)ccnc3C(C)C)c3nc(-c4c(F)cccc4NC(C)=O)c(Cl)cc23)C[C@H]1C` (atropisomer, axis not shown; (M)) [Example 129-1, (M)-N-[2-[6-Chloro-4-[(2S,5R)-2,5-dimethyl-4-prop-2-enoyl-piperazin-1-yl]-1-(2-isopropyl-4-methyl-3-pyridyl)-2-oxo-pyrido[2,3-d]pyrimidin-7-yl]-3-fluoro-phenyl]acetamide], for which the values for the IC50 in experiment [1], in experiment [2] and in experiment [3] were 0.054 µM, 0.124 µM and more than 7.5 µM, respectively.

For the compound `C=CC(=O)N1C[C@H](C)N(c2nc(=O)n(-c3c(C)ccnc3C(C)C)c3nc(-c4c(F)cccc4NC(=O)C(F)(F)F)c(Cl)cc23)C[C@H]1C` (atropisomer, axis not shown; (M)) [Example 129-2, (M)-N-[2-[6-Chloro-4-[(2S,5R)-2,5-dimethyl-4-prop-2-enoyl-piperazin-1-yl]-1-(2-isopropyl-4-methyl-3-pyridyl)-2-oxo-pyrido[2,3-d]pyrimidin-7-yl]-3-fluoro-phenyl]-2,2,2-trifluoro-acetamide], the IC50 in experiment [1] is 0.065 µM; in experiment [2] (Homo sapiens, MIA PaCa-2, 2 h), 0.027 µM; in experiment [3] (Homo sapiens, A549, 2 h), more than 7.5 µM.

Source of the values: patent US11285156B2, “Substituted piperazines as KRAS G12C inhibitors” (Amgen Inc., priority 2018, dated 2022).
